# Source: US9938261B2, “Heterocyclic compounds and methods of use thereof” (AMBIT BIOSCIENCES CORPORATION, priority 2011, dated 2018)
# Legend:
# [1] = molecular target: T1, FLT3 (Homo sapiens, UniProt P36888); test: Competition binding assay, FLT3 Kd; conditions: competition binding
# T1 construct: made in house
# T1 sequence (P36888 27-993): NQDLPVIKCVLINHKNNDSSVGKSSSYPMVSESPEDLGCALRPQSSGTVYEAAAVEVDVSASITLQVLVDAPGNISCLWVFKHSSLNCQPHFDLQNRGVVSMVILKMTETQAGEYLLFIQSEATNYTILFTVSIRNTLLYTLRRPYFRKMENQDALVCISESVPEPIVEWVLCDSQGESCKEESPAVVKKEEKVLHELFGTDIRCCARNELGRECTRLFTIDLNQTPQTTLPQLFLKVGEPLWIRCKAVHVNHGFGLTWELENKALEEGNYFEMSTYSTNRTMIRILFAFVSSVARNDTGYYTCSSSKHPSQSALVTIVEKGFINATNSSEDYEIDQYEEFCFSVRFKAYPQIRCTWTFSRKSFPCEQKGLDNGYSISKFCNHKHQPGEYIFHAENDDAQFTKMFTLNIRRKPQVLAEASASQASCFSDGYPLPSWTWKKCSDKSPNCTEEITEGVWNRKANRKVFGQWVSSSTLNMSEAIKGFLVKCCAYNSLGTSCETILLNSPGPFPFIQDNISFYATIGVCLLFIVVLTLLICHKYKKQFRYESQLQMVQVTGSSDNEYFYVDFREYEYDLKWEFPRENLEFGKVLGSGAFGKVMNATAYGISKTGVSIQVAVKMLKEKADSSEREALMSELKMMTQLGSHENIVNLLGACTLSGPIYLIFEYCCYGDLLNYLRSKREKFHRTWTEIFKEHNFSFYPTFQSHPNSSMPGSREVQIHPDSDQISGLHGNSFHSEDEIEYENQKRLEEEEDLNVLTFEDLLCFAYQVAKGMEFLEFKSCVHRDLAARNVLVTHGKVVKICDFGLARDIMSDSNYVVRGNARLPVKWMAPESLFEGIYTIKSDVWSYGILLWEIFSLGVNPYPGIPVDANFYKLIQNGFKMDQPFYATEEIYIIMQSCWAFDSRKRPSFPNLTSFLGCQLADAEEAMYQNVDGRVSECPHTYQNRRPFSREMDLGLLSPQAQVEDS
# Summary of the method: (§1)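 Phage-fused or HEK-293/DNA-tagged kinase + ligand-coated streptavidin beads + compound, 1 h RT with shaking. Wash, elute with free ligand 30 min RT, qPCR of eluted kinase. Kd: 11-point 3-fold series.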
# [2] = molecular target: T2, PDGFRβ (Homo sapiens, UniProt P09619); test: Competition binding assay, PDGFRβ Kd; conditions: competition binding
# T2 construct: made in house
# Summary of the method: as §1
# [3] = molecular target: T3, CSF1R (Homo sapiens, UniProt P07333); test: HEK293 CSF1R phosphorylation MSD assay; format: cell-based; set-up: expressed in transfected cells; host or cells: HEK293; conditions: HEK293 cells, M-CSF stimulated CSF1R phosphorylation, MSD; read-out: HEK293 pCSF1R M-CSF MSD:IC50
# Summary of the method: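 Ligand-induced CSF1R autophosphorylation was measured by MSD sandwich assay: CSF1R-FKBP from lysates captured via FK506, anti-phosphotyrosine readout. Cells were exposed to compound for 2 h (9-point, half-log, 0.5% DMSO) before 5 min 50 ng/mL M-CSF. Reported IC50 is the mean of duplicate-plate IC50s relative to DMSO control.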
# [4] = molecular target: T3, CSF1R; test: Competition binding assay, CSF1R Kd; set-up: made in house; conditions: competition binding
# Summary of the method: as §1
# T2 sequence (P09619 33-1106): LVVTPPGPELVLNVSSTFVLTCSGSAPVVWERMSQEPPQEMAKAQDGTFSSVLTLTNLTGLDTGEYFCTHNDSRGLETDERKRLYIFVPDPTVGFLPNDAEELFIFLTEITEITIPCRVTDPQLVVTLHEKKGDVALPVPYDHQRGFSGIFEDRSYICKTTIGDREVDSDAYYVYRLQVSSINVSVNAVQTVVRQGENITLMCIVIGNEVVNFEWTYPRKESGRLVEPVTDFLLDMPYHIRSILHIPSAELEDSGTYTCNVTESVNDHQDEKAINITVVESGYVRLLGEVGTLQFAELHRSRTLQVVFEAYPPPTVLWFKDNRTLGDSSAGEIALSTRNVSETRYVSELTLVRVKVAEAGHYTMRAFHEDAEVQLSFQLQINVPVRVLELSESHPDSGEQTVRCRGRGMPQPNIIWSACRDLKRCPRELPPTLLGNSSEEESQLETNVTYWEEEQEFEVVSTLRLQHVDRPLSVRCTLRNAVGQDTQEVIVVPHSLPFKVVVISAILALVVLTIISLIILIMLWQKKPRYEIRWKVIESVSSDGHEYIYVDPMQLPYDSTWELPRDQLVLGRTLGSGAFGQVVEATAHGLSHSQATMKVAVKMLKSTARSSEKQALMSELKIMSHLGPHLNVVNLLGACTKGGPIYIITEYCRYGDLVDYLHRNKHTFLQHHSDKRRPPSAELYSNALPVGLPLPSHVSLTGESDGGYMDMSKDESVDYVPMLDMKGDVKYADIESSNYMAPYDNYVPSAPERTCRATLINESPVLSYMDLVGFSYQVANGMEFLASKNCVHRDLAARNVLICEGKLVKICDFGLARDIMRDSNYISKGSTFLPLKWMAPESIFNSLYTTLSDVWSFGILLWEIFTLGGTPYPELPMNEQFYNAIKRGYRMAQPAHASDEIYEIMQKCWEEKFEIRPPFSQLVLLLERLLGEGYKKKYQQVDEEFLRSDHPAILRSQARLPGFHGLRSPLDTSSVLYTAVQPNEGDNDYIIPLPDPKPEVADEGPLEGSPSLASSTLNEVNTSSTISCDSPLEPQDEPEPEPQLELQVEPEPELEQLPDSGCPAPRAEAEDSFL
# T3 sequence (P07333 20-972): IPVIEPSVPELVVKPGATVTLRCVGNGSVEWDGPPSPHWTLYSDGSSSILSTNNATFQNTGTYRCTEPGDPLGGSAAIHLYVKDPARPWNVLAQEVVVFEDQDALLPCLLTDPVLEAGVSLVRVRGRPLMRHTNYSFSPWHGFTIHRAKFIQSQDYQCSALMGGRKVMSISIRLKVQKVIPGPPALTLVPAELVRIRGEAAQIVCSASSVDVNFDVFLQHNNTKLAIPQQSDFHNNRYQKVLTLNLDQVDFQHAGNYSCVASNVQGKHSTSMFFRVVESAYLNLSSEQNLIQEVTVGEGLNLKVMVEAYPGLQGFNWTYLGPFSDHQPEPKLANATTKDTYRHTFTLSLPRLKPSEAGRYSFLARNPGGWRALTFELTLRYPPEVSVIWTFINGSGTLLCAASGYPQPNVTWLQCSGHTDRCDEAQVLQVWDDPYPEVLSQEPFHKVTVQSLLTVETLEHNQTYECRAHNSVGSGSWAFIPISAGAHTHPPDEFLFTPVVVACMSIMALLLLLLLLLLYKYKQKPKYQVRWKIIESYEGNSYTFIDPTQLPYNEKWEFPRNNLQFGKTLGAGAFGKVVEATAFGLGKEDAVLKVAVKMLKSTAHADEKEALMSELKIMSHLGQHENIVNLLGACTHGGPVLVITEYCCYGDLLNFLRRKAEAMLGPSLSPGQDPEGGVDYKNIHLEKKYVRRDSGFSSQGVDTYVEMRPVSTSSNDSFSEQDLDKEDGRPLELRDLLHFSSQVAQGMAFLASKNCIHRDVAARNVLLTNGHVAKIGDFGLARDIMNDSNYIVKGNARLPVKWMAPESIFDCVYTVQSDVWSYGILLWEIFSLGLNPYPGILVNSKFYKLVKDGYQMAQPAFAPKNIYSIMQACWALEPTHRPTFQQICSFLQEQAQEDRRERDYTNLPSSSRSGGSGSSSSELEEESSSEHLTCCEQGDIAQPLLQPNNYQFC
Compound,Kd [1],Kd [2],IC50 [3],Kd [4]
"Cn1nnnc1-c1cnc2c(c1)ncn2Cc1ccc2nc(N[C@@H]3CCCC[C@H]3O)sc2c1 [Example 134, (1R,2R)-2-((6-((6-(1-methyl-1H-tetrazol-5-yl)-3H-imidazo[4,5-b]pyridin-3-yl)methyl)benzo[d]thiazol-2-yl)amino)cyclohexanol]",200 to 1000 nM,≤ 50 nM,≤ 50 nM,5 to 20 nM
"N#Cc1cnc2c(c1)ncn2Cc1ccc2nc(N[C@@H]3CCCC[C@H]3CO)sc2c1 [Example 140, 3-((2-(((1R,2R)-2-(hydroxymethyl)cyclohexyl)amino)benzo[d]thiazol-6-yl)methyl)-3H-imidazo[4,5-b]pyridine-6-carbonitrile]",> 5000 nM,50 to 500 nM,200 to 500 nM,5 to 20 nM
"O[C@@H]1CCCC[C@H]1Nc1nc2ccc(Cn3cnc4cc(OCCN5CCOCC5)ccc43)cc2s1 [Example 171, (1R,2R)-2-((6-((5-(2-morpholinoethoxy)-1H-benzo[d]imidazol-1-yl)methyl)benzo[d]thiazol-2-yl)amino)cyclohexanol]",200 to 1000 nM,≤ 50 nM,≤ 50 nM,5 to 20 nM

# Results, then the molecule that gave them:
Kd [1],Kd [2],IC50 [3],Kd [4],Compound
1000 to 5000 nM,> 2000 nM,> 500 nM,5 to 20 nM,"O[C@@H]1CCCC[C@H]1Nc1nc2c(F)cc(Cn3cnc4cccnc43)c(F)c2s1 [Example 168, (1R,2R)-2-((6-((3H-imidazo[4,5-b]pyridin-3-yl)methyl)-4,7-difluorobenzo[d]thiazol-2-yl)amino)cyclohexanol]"
200 to 1000 nM,50 to 500 nM,50 to 200 nM,≤ 5 nM,"OCc1ccc2ncc(Cc3ccc4nc(N[C@@H]5CCCC[C@H]5O)sc4c3)n2n1 [Example 144, (1R,2R)-2-((6-((6-(hydroxymethyl)imidazo[1,2-b]pyridazin-3-yl)methyl)benzo[d]thiazol-2-yl)amino)cyclohexanol]"
≤ 200 nM,≤ 50 nM,≤ 50 nM,≤ 5 nM,"O[C@@H]1CCCC[C@H]1Nc1nc2ccc(Cc3cnc4cccnn34)cc2o1 [Example 142, (1R,2R)-2-((6-(imidazo[1,2-b]pyridazin-3-ylmethyl)benzo[d]oxazol-2-yl)amino)cyclohexanol]"
